Target: T1, Recombinant human GSS (Homo sapiens, UniProt P48637)
T1 sequence (P48637 2-474): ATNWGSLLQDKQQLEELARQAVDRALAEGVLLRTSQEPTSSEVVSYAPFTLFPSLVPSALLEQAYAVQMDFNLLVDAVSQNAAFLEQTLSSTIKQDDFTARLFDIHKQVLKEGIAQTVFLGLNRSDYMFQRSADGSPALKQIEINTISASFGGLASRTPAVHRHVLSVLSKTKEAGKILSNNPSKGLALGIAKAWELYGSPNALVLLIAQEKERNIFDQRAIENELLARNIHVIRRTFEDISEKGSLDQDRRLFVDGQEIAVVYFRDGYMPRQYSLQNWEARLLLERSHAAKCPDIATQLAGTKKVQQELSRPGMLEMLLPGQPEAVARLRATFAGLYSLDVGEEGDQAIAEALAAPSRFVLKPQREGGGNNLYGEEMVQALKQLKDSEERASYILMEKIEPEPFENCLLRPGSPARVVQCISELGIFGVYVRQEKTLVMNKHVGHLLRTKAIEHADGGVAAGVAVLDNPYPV
Assay: isothermal titration calorimetry
Type: binding

- Kd: 1.09 µM
SMILES: N[C@@H](CCC(=O)N[C@@H](CS)C(=O)O)C(=O)O [γ-glutamylcysteine]
